According to ChEMBL document CHEMBL1128401, “Structure-activity relationships in the 8-amino-6,7,8,9-tetrahydro-3H-benz[e]indole ring system. 1. Effects of substituents in the aromatic system on serotonin and dopamine receptor subtypes” (J Med Chem, 1995):
Calls of active or inactive are those of the source. The rule behind the calls is not given here.

Experiments:
D(2) dopamine receptor [1] = target: T1, D(2) dopamine receptor (Rattus norvegicus, UniProt P61169); test: Binding affinity against Dopamine receptor D2 from CHO-K1 cells, using [3H]U-86,170 as the radioligand.; assay type: cell-based
Rattus norvegicus [2] = test: In vivo for DOPA accumulation in limbic system against reserpine-pretreated rats.; assay type: functional
[3] = target: 5-hydroxytryptamine receptor 1D (Homo sapiens, UniProt P28221); test: Binding affinity against 5-hydroxytryptamine 1D receptor alpha expressed in CHO-K1 cells, using [3H]-5-HT as the radioligand.; assay type: cell-based; details: read-out: Ki
Rattus norvegicus [4] = test: The Compound was tested in vivo for DOPA accumulation in hemispheres (cortex) against reserpine-pretreated rats;I= inactive at the highest dose tested (50).; assay type: functional, organism-based
Rattus norvegicus [5] = test: In vivo for 5-HTP accumulation in limbic system against reserpine-pretreated rats.; assay type: functional
D(3) dopamine receptor [6] = target: T2, D(3) dopamine receptor (Rattus norvegicus, UniProt P19020); test: Binding affinity against Dopamine receptor D3 from CHO-K1 cells, using [3H]spiperone as the radioligand.; assay type: cell-based; details: read-out: Ki
Rattus norvegicus [7] = test: In vivo for 5-HTP accumulation in hemispheres (cortex) against reserpine-pretreated rats.; assay type: functional
[8] = target: 5-hydroxytryptamine receptor 1B (Homo sapiens, UniProt P28222); test: Binding affinity against 5-hydroxytryptamine 1D receptor beta expressed in CHO-K1 cells, using [3H]5-HT as the radioligand.; assay type: cell-based; details: read-out: Ki
Rattus norvegicus [9] = test: Compound was tested in vivo for DOPA accumulation in corpus striatum against reserpine-pretreated rats; assay type: functional
[10] = target: T3, 5-hydroxytryptamine receptor 1A (Rattus norvegicus, UniProt P19327); test: Binding affinity against 5-hydroxytryptamine 1A receptor from CHO-K1 cells, using [3H]8-OH-DPAT as the radioligand.; assay type: cell-based
T3 sequence (P19327 whole entry): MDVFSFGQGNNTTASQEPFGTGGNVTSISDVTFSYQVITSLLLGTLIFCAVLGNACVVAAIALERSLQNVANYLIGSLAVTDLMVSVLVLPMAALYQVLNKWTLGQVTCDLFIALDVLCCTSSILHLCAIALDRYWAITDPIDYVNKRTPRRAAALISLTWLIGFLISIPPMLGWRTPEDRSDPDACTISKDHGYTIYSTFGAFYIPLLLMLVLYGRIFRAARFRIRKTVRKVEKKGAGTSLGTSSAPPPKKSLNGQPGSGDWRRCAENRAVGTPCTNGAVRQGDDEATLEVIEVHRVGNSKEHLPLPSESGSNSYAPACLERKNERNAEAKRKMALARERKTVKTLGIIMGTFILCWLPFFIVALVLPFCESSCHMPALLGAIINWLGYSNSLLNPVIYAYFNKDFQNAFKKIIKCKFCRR

Rattus norvegicus [11] = test: In vivo for 5-HTP accumulation in corpus striatum against reserpine-pretreated rats.; assay type: functional
Rattus norvegicus [12] = test: compound was tested in vivo for 5-HTP accumulation in corpus striatum against reserpine-pretreated rats, activity expressed as ED50; inactive at the highest dose tested; assay type: functional
Rattus norvegicus [13] = test: compound was tested in vivo for 5-HTP accumulation in limbic system against reserpine-pretreated rats; inactive at the highest dose tested; assay type: functional
Rattus norvegicus [14] = test: The compound was tested in vivo for DOPA accumulation in hemispheres (cortex) against reserpine-pretreated rats;I= inactive at the highest dose tested; assay type: functional, organism-based
Rattus norvegicus [15] = test: compound was tested in vivo for 5-HTP accumulation in hemispheres (cortex) against reserpine-pretreated rats; inactive at the highest dose tested; assay type: functional
Rattus norvegicus [16] = test: compound was tested in vivo for 5-HTP accumulation in corpus striatum against reserpine-pretreated rats, activity expressed as ED50; assay type: functional
Rattus norvegicus [17] = test: compound was tested in vivo for 5-HTP accumulation in limbic system against reserpine-pretreated rats; assay type: functional
Rattus norvegicus [18] = test: compound was tested in vivo for 5-HTP accumulation in hemispheres (cortex) against reserpine-pretreated rats; assay type: functional
D(3) dopamine receptor [19] = target: T2, D(3) dopamine receptor; test: Compound was tested for binding affinity against Dopamine receptor D3 expressed in CHO-K1 cells, using [3H]spiperone as the radioligand.;I = inactive (less than 50% inhibition at 1 uM).; assay type: cell-based
D(2) dopamine receptor [20] = target: T1, D(2) dopamine receptor; test: Binding affinity against Dopamine receptor D2 expressed in CHO-K1 cells, using [3H]U-86170 as the radioligand.; assay type: cell-based
Rattus norvegicus [21] = test: compound was tested in vivo for DOPA accumulation in corpus striatum against reserpine-pretreated rats; I=inactive at the highest dose tested; assay type: functional, organism-based
[22] = tmax in hours at a iv dose of 1.0(pmol/g/h).; assay type: ADME, organism-based; details: in vivo
Rattus norvegicus [23] = test: Bioavailability in male Sprague-Dawley rats, after the po administration at a dose of 20.0(pmol/g/h); assay type: ADME, organism-based; details: in vivo
Rattus norvegicus [24] = test: Bioavailability in male Sprague-Dawley rats, after the iv administration at a dose of 1.0(pmol/g/h); assay type: ADME, organism-based; details: in vivo
Rattus norvegicus [25] = test: The compound was tested in vivo for DOPA accumulation in limbic system against reserpine-pretreated rats;I= inactive at the highest dose tested; assay type: functional, organism-based
[26] = tmax in hours at a po dose of 20.0(pmol/g/h).; assay type: ADME, organism-based; details: in vivo
Rattus norvegicus [27] = test: Oral bioavailability in rat
Rattus norvegicus [28] = test: compound was tested in vivo for 5-HTP accumulation in limbic system against reserpine-pretreated rats,; assay type: functional
Rattus norvegicus [29] = test: compound was tested in vivo for 5-HTP accumulation in hemispheres (cortex) against reserpine-pretreated rats(; assay type: functional
Rattus norvegicus [30] = test: The compound was tested in vivo for DOPA accumulation in hemispheres (cortex) against reserpine-pretreated rats; I= inactive at the highest dose tested (12.5).; assay type: functional, organism-based
Rattus norvegicus [31] = test: compound was tested in vivo for DOPA accumulation in corpus striatum against reserpine-pretreated rats; P=significant partial reduction only at the highest dose tested (12.5).; assay type: functional, organism-based
D(3) dopamine receptor [32] = target: T2, D(3) dopamine receptor; test: The compound was tested in vitro for binding affinity against cloned mammalian Dopamine receptor D3 expressed in CHO cells by, using [3H]spiperone as radioligand; assay type: cell-based

T2 sequence (P19020 whole entry): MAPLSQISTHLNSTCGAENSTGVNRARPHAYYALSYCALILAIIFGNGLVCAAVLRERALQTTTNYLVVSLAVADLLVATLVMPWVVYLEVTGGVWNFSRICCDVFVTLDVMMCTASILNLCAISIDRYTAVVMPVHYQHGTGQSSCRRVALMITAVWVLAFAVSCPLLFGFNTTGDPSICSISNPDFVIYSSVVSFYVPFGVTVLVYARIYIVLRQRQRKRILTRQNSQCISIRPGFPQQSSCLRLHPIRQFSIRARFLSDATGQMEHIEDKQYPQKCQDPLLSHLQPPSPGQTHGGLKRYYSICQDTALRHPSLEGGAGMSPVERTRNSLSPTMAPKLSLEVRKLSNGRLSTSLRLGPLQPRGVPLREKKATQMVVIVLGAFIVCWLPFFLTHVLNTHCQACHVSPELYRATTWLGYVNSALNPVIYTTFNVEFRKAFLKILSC
5-hydroxytryptamine receptor 1D, sequence (P28221 whole entry): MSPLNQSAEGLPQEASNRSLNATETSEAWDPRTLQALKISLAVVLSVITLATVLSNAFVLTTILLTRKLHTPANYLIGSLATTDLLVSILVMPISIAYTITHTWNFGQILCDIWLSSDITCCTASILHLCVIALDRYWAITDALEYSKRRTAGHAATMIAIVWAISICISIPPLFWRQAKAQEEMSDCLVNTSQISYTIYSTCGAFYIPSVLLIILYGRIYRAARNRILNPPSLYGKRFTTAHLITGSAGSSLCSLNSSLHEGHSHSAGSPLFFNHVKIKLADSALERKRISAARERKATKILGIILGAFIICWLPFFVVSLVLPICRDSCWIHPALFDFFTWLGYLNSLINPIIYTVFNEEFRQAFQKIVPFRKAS
5-hydroxytryptamine receptor 1B, sequence (P28222 whole entry): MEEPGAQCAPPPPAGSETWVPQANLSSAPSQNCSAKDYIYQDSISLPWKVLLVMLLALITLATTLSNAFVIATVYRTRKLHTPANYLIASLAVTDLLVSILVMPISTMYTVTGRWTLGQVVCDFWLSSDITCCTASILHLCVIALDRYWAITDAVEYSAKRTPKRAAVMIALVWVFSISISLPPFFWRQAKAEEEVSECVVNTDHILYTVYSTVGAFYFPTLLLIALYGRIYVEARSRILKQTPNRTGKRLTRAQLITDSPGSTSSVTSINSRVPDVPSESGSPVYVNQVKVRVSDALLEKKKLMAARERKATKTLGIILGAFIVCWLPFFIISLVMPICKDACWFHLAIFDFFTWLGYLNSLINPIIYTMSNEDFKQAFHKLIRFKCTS
T1 sequence (P61169 whole entry): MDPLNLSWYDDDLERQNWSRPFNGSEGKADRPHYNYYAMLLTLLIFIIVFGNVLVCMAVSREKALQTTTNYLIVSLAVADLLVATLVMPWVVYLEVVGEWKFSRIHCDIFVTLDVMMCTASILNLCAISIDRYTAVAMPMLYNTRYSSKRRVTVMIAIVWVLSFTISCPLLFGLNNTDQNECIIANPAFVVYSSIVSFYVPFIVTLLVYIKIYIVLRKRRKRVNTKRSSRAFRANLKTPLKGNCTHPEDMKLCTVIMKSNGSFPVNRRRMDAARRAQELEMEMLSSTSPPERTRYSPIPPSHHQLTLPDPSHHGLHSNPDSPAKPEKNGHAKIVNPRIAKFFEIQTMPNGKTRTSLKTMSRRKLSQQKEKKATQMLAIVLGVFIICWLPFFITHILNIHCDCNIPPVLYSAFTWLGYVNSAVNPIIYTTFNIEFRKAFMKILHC

Row | Compound | Ki (D(2) dopamine receptor [1]) | Ki [3] | Ki (D(3) dopamine receptor [6]) | Ki [8] | Ki [10] | ED50 (Rattus norvegicus [14]) | ED50 (Rattus norvegicus [16]) | Ki (D(2) dopamine receptor [20]) | also measured
1 | CCCN(CCC)C1CCc2ccc3[nH]cc(C(=O)C(F)(F)F)c3c2C1 (stereo not drawn) | 544 nM | 112 nM | 675 nM | 279 nM | 20 nM |  |  |  | ED50 (Rattus norvegicus [2]): 20.8 µmol/kg; ED50 (Rattus norvegicus [4]): inactive; ED50 (Rattus norvegicus [5]): 12.6 µmol/kg; ED50 (Rattus norvegicus [7]): 16.3 µmol/kg; ED50 (Rattus norvegicus [9]): 12.6 µmol/kg; ED50 (Rattus norvegicus [11]): 6.5 µmol/kg
2 | CCCN(CCC)[C@H]1CCc2cc(F)c3[nH]cc(C=O)c3c2C1 | 199 nM | 34 nM | 78 nM | 179 nM | 0.8 nM | inactive |  |  | ED50 (Rattus norvegicus [12]): 0.17 µmol/kg; ED50 (Rattus norvegicus [13]): 0.23 µmol/kg; ED50 (Rattus norvegicus [15]): 0.32 µmol/kg
3 | CCCN(CCC)[C@@H]1CCc2cc(F)c3[nH]cc(C=O)c3c2C1 | 48 nM | 4.4 nM | 55 nM |  | 0.3 nM | inactive | 0.083 µmol/kg |  | ED50 (Rattus norvegicus [17]): 0.078 µmol/kg; ED50 (Rattus norvegicus [18]): 0.084 µmol/kg
4 | CCCN(CCC)C1CCc2ccc3[nH]cc(S(C)(=O)=O)c3c2C1 (stereo not drawn) |  | 52 nM |  | 373 nM | 11 nM |  |  | 265 nM | Ki (D(3) dopamine receptor [19]): Not Active
5 | CCCN(CCC)C1CCc2cccc(O)c2C1 (stereo not drawn) [8-OH-DPAT] | 1130 nM |  | 333 nM |  |  | inactive |  |  | ED50 (Rattus norvegicus [21]): inactive; Tmax [22]: 3 min; AUC (Rattus norvegicus [23]): 104 pM ml-1; AUC (Rattus norvegicus [24]): 213 pM ml-1; ED50 (Rattus norvegicus [25]): inactive; Tmax [26]: 29 min; F (Rattus norvegicus [27]): 2.4%
6 | CCCN(CCC)C1CCc2cc(F)c3[nH]cc(C=O)c3c2C1 (stereo not drawn) |  | 4.6 nM |  | 82 nM | 0.5 nM |  | 0.042 µmol/kg | 65 nM | ED50 (Rattus norvegicus [28]): 0.079 µmol/kg; ED50 (Rattus norvegicus [29]): 0.027 µmol/kg; ED50 (Rattus norvegicus [30]): inactive; ED50 (Rattus norvegicus [31]): Weak activity; Ki (D(3) dopamine receptor [32]): 65 nM
